Patent US6951843B2, “Peptide derivatives and their pharmaceutically acceptable salts, thereof, processes for preparation of both and use thereof” (priority 2000, dated 2005)
Like-named read-outs stand apart in the source and are kept apart here.

Tests used:
Lys-gingipain (KGP) = Lys-gingipain (KGP) (Porphyromonas gingivalis, UniProt B2RLK2)
Protocol: Measurement of Inhibitory Activity Against KGP
The inhibitory activity against Lys-gingipain (KGP) was measured by the method described in Journal Biochemistry, Vol. 123, 305-312 (1998), using Z-His-Glu-Lys-MCA as a substrate. Specifically, the measurement was carried out in the following manner: 100 μl of 50 mM L-cystein, 200 μl of a 0.1 M sodium phosphate buffer solution (pH 7.5), 20 μl of 12.3 nM KGP solution containing 0.05% “Brij35” (a tradename of Aldrich, polyoxyethylene(23) lauryl ether), 80 μl of distilled water and 100 μl of a dimethyl sulfoxide solution of a compound according to the invention were mixed together, and preincubated at 37° C. for 5 minutes. Thereafter, 500 μl of a 0.1% dimethyl sulfoxide solution containing 20 μM Z-His-Glu-Lys-MCA was added, followed by incubation at 40° C. for 10 minutes. Then, an acetic acid buffer solution (pH 5.0) containing 10 mM iodoacetamide was added to stop the enzyme reaction, and the fluorescence intensity (F) at 460 nm excited at 380 nm was measured. […] The enzyme inhibitory activity (%) was calculated by the following equation. Enzyme inhibitory activity (%)=[1−(F/F0)]×100

Arg-gingipain (RGP) = experiment: Inhibitory activity against Arg-gingipain (RGP), substrate Z-Phe-Arg-MCA, for comparison; type: biochemical, Porphyromonas gingivalis; settings: compound concentration 10^−6 mol/l
Protocol: Enzyme inhibitory activity (%)=[1−(F/F0)]×100
The inhibitory activity against Arg-gingipain (hereinafter referred to as “RGP”) was measured for comparison in a manner similar to the above, by the process described in Journal Biological Chemistry, Vol. 269, 21371-21378 (1994) using Z-Phe-Arg-MCA as a substrate.

CN(NC(=O)CC[C@H](NC(=O)OCc1ccccc1)C(=O)N[C@@H](CCCCN)C(=O)C(=O)NCc1ccccc1)c1ccccc1.Cl.Cl [Example 49]
Enzyme inhibitory activity (%) KGP (Lys-gingipain (KGP); compound concentration 10^−6 mol/l): 100.0% | Enzyme inhibitory activity (%) KGP (Lys-gingipain (KGP); compound concentration 10^−9 mol/l): 99.0% | Enzyme inhibitory activity (%) RGP (Arg-gingipain (RGP)): 0.0%
